Paper PMC4698308, “A new amino acid substitution (Ala-205-Phe) in acetolactate synthase (ALS) confers broad spectrum resistance to ALS-inhibiting herbicides” (Planta, 2015)
Like-named read-outs stand apart in the source and are kept apart here.

Legend:
[1] = molecular target: T1, recombinant Arabidopsis thaliana ALS wild-type enzyme (WT—sensitive) (Arabidopsis thaliana, UniProt P17597); assay: biochemical
T1 construct: Protein constructs contained an 85 amino acid N-terminal deletion (chloroplast transit peptide); Hexa-histidine tag (N); made in house
T1 sequence (P17597 86-670): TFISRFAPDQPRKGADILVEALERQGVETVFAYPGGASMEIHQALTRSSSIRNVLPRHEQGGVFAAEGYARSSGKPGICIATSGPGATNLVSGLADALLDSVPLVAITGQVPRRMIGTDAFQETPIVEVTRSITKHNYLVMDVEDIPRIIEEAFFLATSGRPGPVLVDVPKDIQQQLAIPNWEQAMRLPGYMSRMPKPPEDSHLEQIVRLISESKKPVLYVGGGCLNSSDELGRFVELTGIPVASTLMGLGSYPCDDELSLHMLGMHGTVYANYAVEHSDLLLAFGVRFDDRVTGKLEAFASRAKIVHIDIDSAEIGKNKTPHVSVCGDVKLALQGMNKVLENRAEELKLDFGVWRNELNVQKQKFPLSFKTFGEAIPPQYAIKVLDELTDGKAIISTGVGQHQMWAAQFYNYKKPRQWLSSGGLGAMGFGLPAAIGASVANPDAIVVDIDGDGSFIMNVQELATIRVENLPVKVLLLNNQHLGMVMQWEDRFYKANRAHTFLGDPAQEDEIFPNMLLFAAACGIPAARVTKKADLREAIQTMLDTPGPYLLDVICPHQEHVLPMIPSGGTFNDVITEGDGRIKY
Description: (§1) Effects of SNPs identified in sequencing analysis on ALS activity were studied using A. thaliana. The ALS gene from A. thaliana and derivatives thereof were de novo synthesized and subcloned into pET-24d(+) (Life Technologies. Grand Island, NY, USA) using NcoI and XhoI restriction sites. Protein constructs contained an 85 amino acid N-terminal deletion (chloroplast transit peptide) and the addition of an N-terminal Hexa-histidine tag to facilitate purification.
(§2) Lysis was performed by at least two passes through a fluidizer, followed by centrifuging at 80000×g for 30 min at 4 °C. […] Fractions containing ALS protein were pooled and stored at −20 °C.
(§3) Inhibitors, purchased from Sigma as Pestanal standards (Sigma-Aldrich, Deisenhofen, Germany), were dissolved in DMSO and added to the reaction mixture. Inhibitors evaluated included imidazolinone, sulfonylurea, triazolopyrimidines, sulfonylamino-carbonyl- triazolinones, and pyrimidinyl (thio) benzoate herbicides. The reaction mixture was incubated at 30 °C for 60 min and stopped with 70 µl of H2SO4 (3 M). The reaction was then heated to 56 °C for 15 min to convert acetolactate into acetoin. […] For each inhibitor, resistance factors were calculated by dividing IC50 values for mutant and sensitive ALS.

[2] = tested on: recombinant Arabidopsis thaliana ALS variant A205F; assay type: biochemical; conditions: IC50 mutant divided by IC50 sensitive ALS; max inhibitor concentration 1.00 × 10^−04 M
Description: as §1, §2, §3

[3] = tested on: recombinant Arabidopsis thaliana ALS variant A205V; assay type: biochemical; conditions: IC50 mutant divided by IC50 sensitive ALS; max inhibitor concentration 1.00 × 10^−04 M
Description: as §1, §2, §3

[4] = tested on: recombinant Arabidopsis thaliana ALS variant W574L; assay type: biochemical; conditions: IC50 mutant divided by IC50 sensitive ALS; max inhibitor concentration 1.00 × 10^−04 M
Description: as §1, §2, §3

[5] = tested on: annual bluegrass (Poa annua L.); assay: Whole plant confirmation of target-site resistance (visual control and dry biomass 28 days after treatment); assay type: in vivo
Description: Progeny of all POAAN-R3 plants subjected to genetic sequencing (RP1–RP8) were surface seeded into separate 10.2 × 10.2 cm greenhouse pots (Dillen Products/Myers Industries, Inc. Middlefield, OH, USA.) filled with a peat moss growing medium (ProMix BX Mycorrhizae. Premier Tech Horticulture, Quakertown, PA, USA) on 5 January 2015. The susceptible annual bluegrass population (S) included in our sequencing analysis was also seeded in the same fashion.
After seeding, pots were placed inside a growth chamber (Conviron A1000. Controlled Environments Inc, Hendersonville, NC) configured to provide 14 h day at 19 °C and a 10 h night at 10 °C. Light intensity inside the chamber averaged 296 μmol m^−2 s^−1. Irrigation was applied to each pot daily using distilled water and a misting nozzle. Annual bluegrass emergence was first noted on 16 January 2015. Plants remained inside the growth chamber until 26 January 2015. On this date, seedlings of each plant (RP1–RP8, S) were transplanted into individual 164 cm^3 plastic conical containers (SC10 Super Cell Cone-tainer. Stuewe and Sons. Tangent, OR 97389) filled with Sequatchie silt loam (fine-loamy, siliceous, semiactive, thermic humic Hapludult) measuring 6.2 in soil pH and 2.1 % in organic matter content. Transplants were replicated such that 32 plastic conical containers were created for each annual bluegrass plant analyzed in previous experiments (RP1–RP8, S). Immediately after transplanting, plastic conical containers were placed in a glasshouse located at the University of Tennessee (Knoxville, TN, USA; 35.56, 83.56). Peak light intensity in this glasshouse averaged 714 μmol m^−2 s^−1 with day/night temperatures averaging 27/17 °C. Irrigation was applied daily using an overhead misting system and plants were not clipped prior to initiating this study.
Plants were allowed to acclimate to this glasshouse environment for 10 days prior to being treated with foramsulfuron (Revolver. Bayer Environmental Sciences. Research Triangle Park, NC, USA) at 29 g ha^−1, imazamox (Clearcast. BASF Corporation. Research Triangle Park, NC) at 140 g ha^−1, or simazine (Princep 4L. Syngenta Professional Products. Greensboro, NC) at 1120 g ha^−1. Per label recommendations, imazamox and simazine treatments included a non-ionic surfactant (Activator-90. Loveland Products Inc. Greeley, CO, USA) at 0.25 % v/v. All treatments were applied in an enclosed spray chamber (Generation III track sprayer. DeVries Manufacturing, Hollandale, MN, USA) using a water carrier at 215 L ha^−1 through an 8004 EVS nozzle (TeeJet, Technologies, Spraying Systems Co., Glendale Heights, IL, USA). These herbicide treatments were selected to confirm results of genetic sequencing that RP1–RP8 were resistant to sulfonylurea, imidazolinone, and photosystem II inhibiting herbicides. A non-treated control treatment was included with each resistant (RP1–RP8) and susceptible (S) plant for comparison. Herbicides were applied on 5 February 2015 when plants were at a two-to-three leaf stage, prior to annual bluegrass tiller formation.
Annual bluegrass control was visually assessed on a 0 (i.e., no control) to 100 % (i.e., complete kill) scale relative to the non-treated 28 days after treatment. After all control data had been collected, aboveground biomass was harvested from each plastic conical container at the soil line using scissors, dried at 100 °C for 3 days, and weighed.
Treatments were arranged as a 9 × 4 factorial with nine plant selections (i.e., RP1–RP8, S) and four herbicide treatments (i.e., foramsulfuron, imazamox, simazine, non-treated) in a completely randomized design with four replications and repeated in time and space during February 2015. Plants were the same age during both experimental runs.

[6] = concentration for 50 % inhibition of WT enzyme, max inhibitor concentration 1.00 × 10^−04 M, read-out: WT sensitivity [IC50]

SMILES	IC50 [1, 6]	Resistance factor A205F [2]	Resistance factor A205V [3]	Resistance factor W574L [4]	IC50 [1]	further results
COc1cc(OC)nc(Oc2cccc(Oc3nc(OC)cc(OC)n3)c2C(=O)O)n1 [Bispyribac]	1.58 nM	7	11	7944		
COc1ncc(F)c2nc(S(=O)(=O)Nc3c(F)cccc3F)nn12 [Florasulam]	3.43 nM	1	89	370		
COc1nn(C(=O)NS(=O)(=O)c2ccccc2OC(F)(F)F)c(=O)n1C [Flucarbazone]	24.5 nM	441	2	7		
COCc1cnc(C2=NC(C)(C(C)C)C(=O)N2)c(C(=O)O)c1 (centres unmarked) [Imazamox]			34	34	2930 nM	annual bluegrass control, resistant plants with the exception of RP6 ([5]; 28 days after treatment, summary over RP1–RP5, RP7, RP8): ≤ 11%; Annual bluegrass biomass RP1 ([5]; RP1, aboveground dry biomass 28 days after treatment, foramsulfuron 29, imazamox 140, simazine 1120 g ha^-1): 84 % of nontreated control; Annual bluegrass control RP1 ([5]; RP1 plants, 28 days after treatment, 2 to 3 leaf stage, foramsulfuron 29, imazamox 140, simazine 1120 g ha^−1): 2%; Annual bluegrass biomass RP2 ([5]; RP2, aboveground dry biomass 28 days after treatment, foramsulfuron 29, imazamox 140, simazine 1120 g ha^-1): 66 % of nontreated control; Annual bluegrass control RP2 ([5]; RP2 plants, 28 days after treatment, 2 to 3 leaf stage, foramsulfuron 29, imazamox 140, simazine 1120 g ha^−1): 0%; Annual bluegrass biomass RP3 ([5]; RP3, aboveground dry biomass 28 days after treatment, foramsulfuron 29, imazamox 140, simazine 1120 g ha^-1): 94 % of nontreated control; Annual bluegrass control RP3 ([5]; RP3 plants, 28 days after treatment, 2 to 3 leaf stage, foramsulfuron 29, imazamox 140, simazine 1120 g ha^−1): 0%; Annual bluegrass biomass RP4 ([5]; RP4, aboveground dry biomass 28 days after treatment, foramsulfuron 29, imazamox 140, simazine 1120 g ha^-1): 55 % of nontreated control; Annual bluegrass control RP4 ([5]; RP4 plants, 28 days after treatment, 2 to 3 leaf stage, foramsulfuron 29, imazamox 140, simazine 1120 g ha^−1): 0%; Annual bluegrass biomass RP5 ([5]; RP5, aboveground dry biomass 28 days after treatment, foramsulfuron 29, imazamox 140, simazine 1120 g ha^-1): 49 % of nontreated control; Annual bluegrass control RP5 ([5]; RP5 plants, 28 days after treatment, 2 to 3 leaf stage, foramsulfuron 29, imazamox 140, simazine 1120 g ha^−1): 3%; Annual bluegrass biomass RP6 ([5]; RP6, aboveground dry biomass 28 days after treatment, foramsulfuron 29, imazamox 140, simazine 1120 g ha^-1): 70 % of nontreated control; Annual bluegrass control RP6 ([5]; RP6 plants, 28 days after treatment, 2 to 3 leaf stage, foramsulfuron 29, imazamox 140, simazine 1120 g ha^−1): 16%; Annual bluegrass biomass RP7 ([5]; RP7, aboveground dry biomass 28 days after treatment, foramsulfuron 29, imazamox 140, simazine 1120 g ha^-1): 87 % of nontreated control; Annual bluegrass control RP7 ([5]; RP7 plants, 28 days after treatment, 2 to 3 leaf stage, foramsulfuron 29, imazamox 140, simazine 1120 g ha^−1): 4%; Annual bluegrass biomass RP8 ([5]; RP8, aboveground dry biomass 28 days after treatment, foramsulfuron 29, imazamox 140, simazine 1120 g ha^-1): 86 % of nontreated control; Annual bluegrass control RP8 ([5]; RP8 plants, 28 days after treatment, 2 to 3 leaf stage, foramsulfuron 29, imazamox 140, simazine 1120 g ha^−1): 0%; Annual bluegrass control S ([5]; susceptible (S) plants, 28 days after treatment, 2 to 3 leaf stage, foramsulfuron 29, imazamox 140, simazine 1120 g ha^−1): 93%; Annual bluegrass biomass S ([5]; susceptible (S), aboveground dry biomass 28 days after treatment, foramsulfuron 29, imazamox 140, simazine 1120 g ha^-1): 3 % of nontreated control
COc1cc(OC)nc(NC(=O)NS(=O)(=O)c2cc(CNS(C)(=O)=O)ccc2C(=O)O)n1 [Mesosulfuron]	1.33 nM	293	16	104		
COc1cc(OC)n2nc(S(=O)(=O)Nc3c(Cl)ccc(C)c3Cl)nc2n1 [Metosulam]		1656	34	107	0.441 nM	
COc1cc(OC)nc(NC(=O)NS(=O)(=O)c2ncccc2C(=O)N(C)C)n1 [Nicosulfuron]		1401	30	35	71.4 nM	
CCCOc1nn(C(=O)[N-]S(=O)(=O)c2ccccc2C(=O)OC)c(=O)n1C.[Na+] [Propoxycarbazone]		1185	20	309		
COc1cc(OC)nc(Sc2cccc3c2C(=O)OC3C)n1 (centres unmarked) [Pyriftalid]	20000 nM	5	5	5		
COc1cc(OC)nc(Sc2cccc(Cl)c2C(=O)O)n1 [Pyrithiobac]		306	433	134,838	0.742 nM	
COc1nn(C(=O)NS(=O)(=O)c2c(C(=O)O)csc2C)c(=O)n1C [Thiencarbazone]	24.8 nM	62	8	16		
COc1nc(NC(=O)NS(=O)(=O)c2ccccc2C(F)(F)F)nc(C(F)(F)F)n1 [Tritosulfuron]	18.7 nM	5356	37	167		
